Structures can show the parent of a compound that is named as a salt.
How the values were obtained:
Format in all cases: biochemical
[1] = molecular target: T1, JAK2 (Homo sapiens, UniProt O60674); test: JAK2 inhibition (Table 4); settings: read-out: JAK2 Ki
T1 construct: made in house; host or cells: SF9 insect cells (baculovirus)

[2] = molecular target: T2, TYK2 (Homo sapiens, UniProt P29597); test: TYK2 inhibition (Table 4)
T2 construct: made in house; host or cells: SF9 insect cells (baculovirus)
T2 sequence (P29597 873-1187): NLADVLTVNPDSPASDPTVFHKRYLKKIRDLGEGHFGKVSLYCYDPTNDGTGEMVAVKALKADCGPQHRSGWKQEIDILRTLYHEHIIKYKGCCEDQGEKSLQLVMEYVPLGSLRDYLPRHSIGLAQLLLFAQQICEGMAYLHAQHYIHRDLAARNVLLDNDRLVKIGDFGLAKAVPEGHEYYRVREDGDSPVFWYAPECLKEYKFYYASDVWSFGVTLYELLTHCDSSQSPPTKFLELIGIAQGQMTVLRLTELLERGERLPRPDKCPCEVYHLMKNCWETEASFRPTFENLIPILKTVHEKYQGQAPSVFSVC

[3] = molecular target: T3, JAK3 (Homo sapiens, UniProt P52333); test: JAK3 inhibition (Table 4); settings: read-out: JAK3 Ki
T3 construct: made in house; host or cells: SF9 insect cells (baculovirus)

[4] = molecular target: T4, JAK1 (Homo sapiens, UniProt P23458); test: JAK1 inhibition (Table 4); settings: read-out: JAK1 Ki
T4 construct: made in house; host or cells: SF9 insect cells (baculovirus)
T4 sequence (P23458 852-1154): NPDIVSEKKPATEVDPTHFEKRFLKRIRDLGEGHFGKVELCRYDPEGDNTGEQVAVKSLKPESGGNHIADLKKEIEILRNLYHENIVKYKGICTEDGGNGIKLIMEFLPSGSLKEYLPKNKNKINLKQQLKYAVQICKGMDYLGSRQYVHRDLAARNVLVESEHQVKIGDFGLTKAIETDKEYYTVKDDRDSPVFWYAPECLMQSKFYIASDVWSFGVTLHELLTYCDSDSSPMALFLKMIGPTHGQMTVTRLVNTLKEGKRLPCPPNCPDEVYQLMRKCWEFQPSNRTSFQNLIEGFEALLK

T3 sequence (P52333 783-1124): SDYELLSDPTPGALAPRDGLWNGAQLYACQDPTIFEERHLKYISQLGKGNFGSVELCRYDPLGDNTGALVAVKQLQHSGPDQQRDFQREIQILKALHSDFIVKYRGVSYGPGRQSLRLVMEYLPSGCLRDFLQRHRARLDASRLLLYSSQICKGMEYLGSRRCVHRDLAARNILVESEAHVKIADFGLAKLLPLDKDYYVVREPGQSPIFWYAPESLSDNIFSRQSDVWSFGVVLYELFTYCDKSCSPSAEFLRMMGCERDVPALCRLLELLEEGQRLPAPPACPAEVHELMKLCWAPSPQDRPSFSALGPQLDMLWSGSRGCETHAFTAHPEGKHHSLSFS
T1 sequence (O60674 812-1132): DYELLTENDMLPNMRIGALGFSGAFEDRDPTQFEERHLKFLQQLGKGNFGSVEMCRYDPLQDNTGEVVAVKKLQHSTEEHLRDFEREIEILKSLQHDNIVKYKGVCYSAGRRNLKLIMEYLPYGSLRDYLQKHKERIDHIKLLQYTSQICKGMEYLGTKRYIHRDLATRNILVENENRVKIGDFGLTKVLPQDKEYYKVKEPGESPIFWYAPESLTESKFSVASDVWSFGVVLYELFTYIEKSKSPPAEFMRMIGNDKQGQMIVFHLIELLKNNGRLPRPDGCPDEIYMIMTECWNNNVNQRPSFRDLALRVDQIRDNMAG

Ki [1] | Ki [2] | Ki [3] | Ki [4] | SMILES
854 nM | 1990 nM | 1450 nM | 227 nM | FC1CNCCC1n1nnc2cnc3[nH]ccc3c21 (racemic) [Example 518, 1-(3-Fluoro-piperidin-4-yl)-1,6-dihydro-1,2,3,5,6-pentaaza-as-indacene]
4.92 nM | 24.5 nM | 33 nM | 1.74 nM | N#CCC(=O)N1CCC(F)C(n2nnc3cnc4[nH]ccc4c32)C1 (racemic) [Example 519, 3-[4-Fluoro-3-(6H-1,2,3,5,6-pentaaza-as-indacen-1-yl)-piperidin-1-yl]-3-oxo-propionitrile]
128 nM | 261 nM | 412 nM | 38.2 nM | FC1CNCCC1n1cnc2cnc3[nH]ccc3c21 (racemic) [Example 520, 1-(3-Fluoro-piperidin-4-yl)-1,6-dihydro-1,3,5,6-tetraaza-as-indacene]
33.2 nM | 96.8 nM | 87.6 nM | 12.3 nM | FC1CNCCC1n1nnc2cnc3[nH]ccc3c21 (racemic) [Example 525, 1-(3-Fluoro-piperidin-4-yl)-l,6-dihydro-1,2,3,5,6-pentaaza-as-indacene]
200 nM | 65.2 nM | 189 nM | 107 nM | CC(O)c1nc2cnc3[nH]ccc3c2n1C1CCN(S(C)(=O)=O)CC1 (racemic) [Example 527, 1-[1-(1-Methanesulfonyl-piperidin-4-yl)-1,6-dihydro-1,3,5,6-tetraaza-as-indacen-2-yl]-ethanol]
396 nM | 1410 nM | 187 nM | 156 nM | CC(O)c1nc2cnc3[nH]ccc3c2n1C1CCN(C(=O)N(C)C)CC1 (racemic) [Example 528, 4-[2-(1-Hydroxy-ethyl)-6H-1,3,5,6-tetraaza-as-indacen-1-yl]-piperidine-1-carboxylic acid dimethylamide]
284 nM | 2170 nM | 561 nM | 19.6 nM | CC(O)c1nc2cnc3[nH]ccc3c2n1C1CCN(CC(=O)N2CCCCC2)CC1 (racemic) [Example 529, 2-{4-[2-(1-Hydroxy-ethyl)-6H-1,3,5,6-tetraaza-as-indacen-1-yl]-piperidin-1-yl}-1-piperidin-1-yl-ethanone]
4.58 nM | 21.2 nM | 4.23 nM | 1.77 nM | CCN1CCC(n2c(C)nc3cnc4[nH]ccc4c32)C(F)(F)C1 (racemic) [Example 531, 1-(1-Ethyl-3,3-difluoro-piperidin-4-yl)-2-methyl-1,6-dihydro-1,3,5,6-tetraaza-as-indacene]
6 nM | 23.8 nM | 30.4 nM | 2.86 nM | CCN1CCC(n2cnc3cnc4[nH]ccc4c32)C(F)(F)C1 (racemic) [Example 532, 1-(1-Ethyl-3,3-difluoro-piperidin-4-yl)-1,6-dihydro-1,3,5,6-tetraaza-as-indacene]
15.7 nM | 59.7 nM | 48.8 nM | 9.05 nM | CCN1CCC(n2nnc3cnc4[nH]ccc4c32)C(F)(F)C1 (racemic) [Example 533, 1-(1-Ethyl-3,3-difluoro-piperidin-4-yl)-1,6-dihydro-1,2,3,5,6-pentaaza-as-indacene]
24.4 nM | 150 nM | 88.9 nM | 9.86 nM | COC1CN(C)CCC1n1c(C)nc2cnc3[nH]ccc3c21 (racemic) [Example 534, 1-(3-Methoxy-1-methyl-piperidin-4-yl)-2-methyl-1,6-dihydro-1,3,5,6-tetraaza-as-indacene]
44.9 nM | 88.2 nM | 225 nM | 12 nM | COC1CNCCC1n1c(C)nc2cnc3[nH]ccc3c21 (racemic) [Example 535, 1-(3-Methoxy-piperidin-4-yl)-2-methyl-1,6-dihydro-1,3,5,6-tetraaza-as-indacene]
61.2 nM | 235 nM | 1020 nM | 32.5 nM | COC1CNCCC1n1nnc2cnc3[nH]ccc3c21 (racemic) [Example 536, 1-(3-Methoxy-piperidin-4-yl)-1,6-dihydro-1,2,3,5,6-pentaaza-as-indacene]
33.8 nM | 122 nM | 322 nM | 25.2 nM | COC1CNCCC1n1cnc2cnc3[nH]ccc3c21 (racemic) [Example 537, 1-(3-Methoxy-piperidin-4-yl)-1,6-dihydro-1,3,5,6-tetraaza-as-indacene]
0.89 nM | 8.66 nM | 4.01 nM | 0.86 nM | COC1CN(CCC#N)CCC1n1c(C)nc2cnc3[nH]ccc3c21 (racemic) [Example 538, 3-[3-Methoxy-4-(2-methyl-6H-1,3,5,6-tetraaza-as-indacen-1-yl)-piperidin-1-yl]-propionitrile]
194 nM | 352 nM | 97.4 nM | 12.7 nM | COCCN1CCC(n2c(C(C)O)nc3cnc4[nH]ccc4c32)CC1 (racemic) [Example 539, 1-{1-[1-(2-Methoxy-ethyl)-piperidin-4-yl]-1,6-dihydro-1,3,5,6-tetraaza-as-indacen-2-yl}-ethanol]
126 nM | 497 nM | 823 nM | 30.8 nM | Cc1nc2cnc3[nH]ccc3c2n1[C@H]1CC[C@H](N2CCC(O)C2)CC1 (mixture of isomers) [Example 597, Racemic trans 1-[4-(2-Methyl-6H-1,2,3,5,6-tetraaza-as-indacen-1-yl)-cyclohexyl]-pyrrolidin-3-ol]
446 nM | 1440 nM | 942 nM | 138 nM | COCCNC1CCC(n2nnc3cnc4[nH]ccc4c32)C1 (racemic) [Example 618, Racemic trans (2-methoxy-ethyl)-[3-(6H-1,2,3,5,6-pentaaza-as-indacen-1-yl)-cyclopentyl]-amine hydrochloride]
8.15 nM | 91.4 nM | 20.5 nM | 1.64 nM | O=C(NC1CCC(n2nnc3cnc4[nH]ccc4c32)C1)OCC(F)(F)F (racemic) [Example 620, Racemic trans [3-(6H-1,2,3,5,6-Pentaaza-as-indacen-1-yl)-cyclopentyl]-carbamic acid 2,2,2-trifluoro-ethyl ester]
23.2 nM | 124 nM | 148 nM | 8.78 nM | COC(=O)NC1CCC(n2nnc3cnc4[nH]ccc4c32)C1 (racemic) [Example 621, Racemic trans [3-(6H-1,2,3,5,6-Pentaaza-as-indacen-1-yl)-cyclopentyl]-carbamic acid methyl ester]
12.4 nM | 233 nM | 19.5 nM | 9 nM | CN(CC(F)(F)F)C(=O)NC1CCC(n2nnc3cnc4[nH]ccc4c32)C1 (racemic) [Example 622, Racemic trans 1-Methyl-3-[3-(6H-1,2,3,5,6-pentaaza-as-indacen-1-yl)-cyclopentyl]-1-(2,2,2-trifluoro-ethyl)-urea]
6.4 nM | 9.38 nM | 33.7 nM | 2.04 nM | Cc1nc2cnc3[nH]ccc3c2n1C1CCC(NCC(F)(F)F)C1 (racemic) [Example 626, Racemic trans [3-(2-Methyl-6H-1,2,3,5,6-tetraaza-as-indacen-1-yl)-cyclopentyl]-(2,2,2-trifluoro-ethyl)-amine]

From US8461328B2, “Tricyclic heterocyclic compounds, compositions and methods of use thereof” (Genentech, Inc., priority 2010, dated 2013)
